Assay [1] concerns HeLa. Description: Antiproliferative activity against human HeLa cells assessed as inhibition of cell viability after 72 hrs by MTT assay. It is filed as functional, cell-based. Background: Tetrazolium assays rely on reduction of a dye to a coloured formazan, in cell work by metabolically active cells.
The test system of another assay is HCT-116. Description: Antiproliferative activity against human HCT116 cells assessed as inhibition of cell viability after 72 hrs by MTT assay. The format is functional, cell-based. The following applies: HCT-116, 72 h.
The next assay concerns PC-3. The experiment in a line: Antiproliferative activity against human PC3 cells assessed as inhibition of cell viability after 72 hrs by MTT assay. The following applies: PC-3, 72 h. The format is functional, cell-based.
The next assay relates to HEK293. Description: Antiproliferative activity against HEK293 cells assessed as inhibition of cell viability after 72 hrs by MTT assay. It is filed as cell-based. The conditions noted are these: Homo sapiens, HEK293, 72 h.
The test system of assay [2] is HeLa. The experiment in a line: Cell cycle arrest in human HeLa cells assessed as accumulation at G2/M phase at 100 nM after 24 hrs by propidium iodide staining based flow cytometry. It is filed as functional. In general terms: In flow cytometry, cells or beads pass a laser one at a time.
For assay [3], the target named is T1, Tubulin (Homo sapiens) (UniProt P68371+Q9H4B7+P0DPH7+P68366+Q13509+Q71U36+P04350+Q3ZCM7+P07437+P68363+Q9BQE3+Q6PEY2+Q13885+Q9BVA1+Q9BUF5). Description: Inhibition of acetylated tubulin accumulation in human HeLa cells at 1000 nM after 6 hrs by Western blot analysis. The format is cell-based. (Immunoblotting shows a protein as a band on a membrane.)
Assay [4] deals with T1, Tubulin (Homo sapiens). The experiment in a line: Inhibition of tubulin polymerization in human HeLa cells assessed as reduction of microtubule formation at 1000 nM after 6 hrs by DAPI staining-based immunofluorescence assay. The format is cell-based.
The subject of assay [5] is HeLa. Description: Cell cycle arrest in human HeLa cells assessed as accumulation at G2/M phase at 0.3 to 30 nM after 24 hrs by propidium iodide staining based flow cytometry. The format is functional.
Assay [6] concerns HeLa. Description: Cell cycle arrest in human HeLa cells assessed as accumulation at G2/M phase at 3 to 30 uM after 24 hrs by propidium iodide staining based flow cytometry. The format is functional.
Assay [7] addresses T1, Tubulin (Homo sapiens). Description: Inhibition of acetylated tubulin accumulation in human HeLa cells at 300 nM after 6 hrs by Western blot analysis. The format is cell-based.
The target in assay [8] is T1, Tubulin (Homo sapiens). Description: Inhibition of tubulin polymerization in human HeLa cells assessed as reduction of microtubule formation at 300 nM after 6 hrs by DAPI staining-based immunofluorescence assay. The format is cell-based.
The target in assay [9] is T2, Cyclin-dependent kinase 2/cyclin E1 (Homo sapiens) (UniProt P24864+P24941). Description: Inhibition of N-terminal GST-tagged human full length CDK2/Cyclin E1 expressed in baculovirus using histone H1 as substrate at 10 uM after 1 hr by off-chip Mobility Shift Assay.
A further assay concerns Pyricularia oryzae. Description: Antimicrobial activity against Magnaporthe oryzae Kita-1 at 100 nM after 48 hrs by standard microdilution method. It is filed as functional, organism-based.
For assay [10], the target named is Platelet-derived growth factor receptor beta (Homo sapiens) (UniProt P09619). The experiment in a line: Inhibition of N-terminal GST fusion protein human PDGFR-beta cytoplasmic domain expressed in baculovirus using CSKtide as substrate at 10 uM after 1 hr by off-chip Mobility Shift Assay.
Platelet-derived growth factor receptor beta (Homo sapiens), sequence (P09619 whole entry, the tested form may be a part): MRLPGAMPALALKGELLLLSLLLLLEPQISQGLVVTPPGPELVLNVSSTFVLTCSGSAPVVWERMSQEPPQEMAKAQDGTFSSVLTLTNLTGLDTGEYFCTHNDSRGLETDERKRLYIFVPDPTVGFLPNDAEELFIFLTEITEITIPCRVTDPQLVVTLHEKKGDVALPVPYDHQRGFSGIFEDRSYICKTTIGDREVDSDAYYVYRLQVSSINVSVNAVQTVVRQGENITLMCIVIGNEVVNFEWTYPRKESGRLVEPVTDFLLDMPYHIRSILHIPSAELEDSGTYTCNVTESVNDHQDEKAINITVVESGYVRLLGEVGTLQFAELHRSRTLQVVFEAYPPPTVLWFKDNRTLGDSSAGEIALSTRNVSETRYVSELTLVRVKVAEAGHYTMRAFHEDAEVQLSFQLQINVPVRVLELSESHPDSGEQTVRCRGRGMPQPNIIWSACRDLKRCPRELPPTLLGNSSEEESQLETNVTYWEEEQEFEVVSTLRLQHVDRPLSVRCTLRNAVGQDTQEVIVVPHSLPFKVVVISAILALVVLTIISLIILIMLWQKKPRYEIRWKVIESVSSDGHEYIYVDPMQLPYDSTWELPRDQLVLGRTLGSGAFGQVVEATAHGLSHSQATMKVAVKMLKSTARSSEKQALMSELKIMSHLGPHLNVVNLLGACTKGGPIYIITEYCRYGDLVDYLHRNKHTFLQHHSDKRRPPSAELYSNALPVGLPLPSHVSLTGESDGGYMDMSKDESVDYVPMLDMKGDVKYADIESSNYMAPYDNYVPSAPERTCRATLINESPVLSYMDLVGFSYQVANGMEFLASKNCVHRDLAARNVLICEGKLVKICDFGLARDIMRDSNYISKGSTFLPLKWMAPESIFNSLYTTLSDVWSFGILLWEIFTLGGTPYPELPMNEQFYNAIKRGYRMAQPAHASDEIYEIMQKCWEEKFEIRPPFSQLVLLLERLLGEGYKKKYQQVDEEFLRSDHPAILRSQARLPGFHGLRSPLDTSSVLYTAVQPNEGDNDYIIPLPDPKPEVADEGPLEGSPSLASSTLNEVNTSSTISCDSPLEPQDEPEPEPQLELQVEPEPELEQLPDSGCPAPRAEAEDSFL
In assay [11] the target is Vascular endothelial growth factor receptor 2 (Homo sapiens) (UniProt P35968). The experiment in a line: Inhibition of N-terminal GST fusion protein human KDR cytoplasmic domain expressed in baculovirus using CSKtide as substrate at 0.1 uM after 1 hr by off-chip Mobility Shift Assay.
Vascular endothelial growth factor receptor 2 (Homo sapiens), sequence (P35968 whole entry, the tested form may be a part): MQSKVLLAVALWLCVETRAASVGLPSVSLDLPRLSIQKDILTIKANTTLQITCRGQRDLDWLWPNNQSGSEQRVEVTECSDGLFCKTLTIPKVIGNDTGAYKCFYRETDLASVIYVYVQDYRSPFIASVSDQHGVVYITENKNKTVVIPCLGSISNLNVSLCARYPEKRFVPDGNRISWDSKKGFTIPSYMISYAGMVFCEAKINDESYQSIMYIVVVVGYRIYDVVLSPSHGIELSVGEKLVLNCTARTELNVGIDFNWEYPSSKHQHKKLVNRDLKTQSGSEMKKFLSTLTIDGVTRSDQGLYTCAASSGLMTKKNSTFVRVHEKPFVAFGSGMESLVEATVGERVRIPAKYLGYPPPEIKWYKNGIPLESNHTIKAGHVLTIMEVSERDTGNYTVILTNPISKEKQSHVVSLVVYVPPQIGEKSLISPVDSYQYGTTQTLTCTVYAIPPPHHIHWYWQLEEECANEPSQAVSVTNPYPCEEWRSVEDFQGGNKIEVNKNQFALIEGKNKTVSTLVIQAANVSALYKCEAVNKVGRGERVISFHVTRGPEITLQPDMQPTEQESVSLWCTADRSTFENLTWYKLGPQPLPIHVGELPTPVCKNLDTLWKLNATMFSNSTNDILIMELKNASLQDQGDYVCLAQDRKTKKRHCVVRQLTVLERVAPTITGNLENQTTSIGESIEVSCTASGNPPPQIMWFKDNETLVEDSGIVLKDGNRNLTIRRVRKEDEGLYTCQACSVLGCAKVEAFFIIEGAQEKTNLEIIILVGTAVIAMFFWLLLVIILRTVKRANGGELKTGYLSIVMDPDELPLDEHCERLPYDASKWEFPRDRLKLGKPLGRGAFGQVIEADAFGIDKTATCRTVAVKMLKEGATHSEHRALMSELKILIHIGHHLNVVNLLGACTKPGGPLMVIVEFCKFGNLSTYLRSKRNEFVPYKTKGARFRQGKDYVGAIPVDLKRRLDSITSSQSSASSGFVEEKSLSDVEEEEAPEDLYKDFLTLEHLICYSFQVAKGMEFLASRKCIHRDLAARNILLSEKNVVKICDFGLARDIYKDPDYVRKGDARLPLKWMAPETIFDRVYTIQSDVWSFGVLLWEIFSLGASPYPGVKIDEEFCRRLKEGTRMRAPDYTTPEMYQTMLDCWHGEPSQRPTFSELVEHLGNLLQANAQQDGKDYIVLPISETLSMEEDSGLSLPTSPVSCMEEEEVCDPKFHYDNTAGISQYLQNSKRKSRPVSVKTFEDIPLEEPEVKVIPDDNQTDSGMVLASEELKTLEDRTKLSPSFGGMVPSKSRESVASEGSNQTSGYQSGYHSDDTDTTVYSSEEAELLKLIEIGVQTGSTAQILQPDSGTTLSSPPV
The test system of another assay is Candida albicans. The experiment in a line: Antimicrobial activity against Candida albicans JCM1542 at 100 nM after 24 hrs by standard microdilution method. The format is functional, organism-based.
Assay [12] has as its target T2, Cyclin-dependent kinase 2/cyclin E1 (Homo sapiens). Description: Inhibition of N-terminal GST-tagged human full length CDK2/Cyclin E1 expressed in baculovirus using histone H1 as substrate at 0.1 uM after 1 hr by off-chip Mobility Shift Assay.
The target in assay [13] is Epidermal growth factor receptor (Homo sapiens) (UniProt P00533). The experiment in a line: Inhibition of N-terminal GST fusion protein human EGFR cytoplasmic domain expressed in baculovirus using Srctide as substrate at 0.1 uM after 1 hr by off-chip Mobility Shift Assay.
Epidermal growth factor receptor (Homo sapiens), sequence (P00533 whole entry, the tested form may be a part): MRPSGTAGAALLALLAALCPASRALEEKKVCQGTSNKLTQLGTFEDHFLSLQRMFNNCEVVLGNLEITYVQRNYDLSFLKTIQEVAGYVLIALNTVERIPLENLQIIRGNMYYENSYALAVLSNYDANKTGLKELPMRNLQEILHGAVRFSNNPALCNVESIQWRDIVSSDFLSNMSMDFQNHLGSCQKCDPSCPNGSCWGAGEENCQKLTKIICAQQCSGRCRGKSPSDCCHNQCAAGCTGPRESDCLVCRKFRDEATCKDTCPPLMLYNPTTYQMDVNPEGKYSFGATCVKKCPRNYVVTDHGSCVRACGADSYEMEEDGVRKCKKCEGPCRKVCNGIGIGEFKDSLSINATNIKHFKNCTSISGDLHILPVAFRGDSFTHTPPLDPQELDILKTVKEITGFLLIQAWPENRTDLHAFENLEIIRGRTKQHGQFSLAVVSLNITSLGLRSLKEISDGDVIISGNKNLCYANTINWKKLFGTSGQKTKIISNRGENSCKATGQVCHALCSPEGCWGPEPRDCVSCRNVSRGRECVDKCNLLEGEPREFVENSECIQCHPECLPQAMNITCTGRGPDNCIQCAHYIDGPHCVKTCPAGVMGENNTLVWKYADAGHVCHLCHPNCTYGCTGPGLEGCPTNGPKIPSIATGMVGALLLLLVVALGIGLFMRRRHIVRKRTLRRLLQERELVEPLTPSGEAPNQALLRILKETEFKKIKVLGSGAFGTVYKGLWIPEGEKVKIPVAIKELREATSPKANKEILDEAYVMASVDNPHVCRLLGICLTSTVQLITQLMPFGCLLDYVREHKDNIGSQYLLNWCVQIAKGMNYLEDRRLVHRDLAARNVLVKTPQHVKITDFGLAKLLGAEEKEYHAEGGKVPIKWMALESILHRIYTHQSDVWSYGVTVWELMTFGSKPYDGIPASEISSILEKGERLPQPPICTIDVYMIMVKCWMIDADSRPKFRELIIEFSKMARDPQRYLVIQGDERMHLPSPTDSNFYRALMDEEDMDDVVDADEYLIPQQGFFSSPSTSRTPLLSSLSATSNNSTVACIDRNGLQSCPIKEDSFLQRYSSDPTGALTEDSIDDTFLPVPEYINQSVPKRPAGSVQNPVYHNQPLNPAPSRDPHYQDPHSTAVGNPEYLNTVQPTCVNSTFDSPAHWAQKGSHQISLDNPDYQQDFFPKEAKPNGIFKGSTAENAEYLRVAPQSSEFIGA
In assay [14] the target is Vascular endothelial growth factor receptor 2 (Homo sapiens) (UniProt P35968). The experiment in a line: Inhibition of N-terminal GST fusion protein human KDR cytoplasmic domain expressed in baculovirus using CSKtide as substrate at 10 uM after 1 hr by off-chip Mobility Shift Assay.
Assay [15] deals with T3, Serine/threonine-protein kinase Chk1 (Homo sapiens) (UniProt O14757).
T3 sequence (whole entry): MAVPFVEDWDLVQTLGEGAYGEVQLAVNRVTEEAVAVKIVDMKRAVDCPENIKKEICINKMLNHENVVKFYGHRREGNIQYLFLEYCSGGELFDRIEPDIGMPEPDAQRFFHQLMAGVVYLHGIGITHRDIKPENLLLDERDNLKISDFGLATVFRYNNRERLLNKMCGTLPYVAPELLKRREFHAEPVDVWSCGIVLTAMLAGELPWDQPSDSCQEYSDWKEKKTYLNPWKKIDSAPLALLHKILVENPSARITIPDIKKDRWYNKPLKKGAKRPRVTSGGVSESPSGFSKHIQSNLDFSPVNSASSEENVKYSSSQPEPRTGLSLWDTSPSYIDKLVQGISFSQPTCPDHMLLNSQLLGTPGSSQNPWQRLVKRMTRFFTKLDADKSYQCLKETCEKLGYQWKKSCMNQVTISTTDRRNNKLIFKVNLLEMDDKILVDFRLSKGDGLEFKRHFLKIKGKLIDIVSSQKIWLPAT
The experiment in a line: Inhibition of human full length N-terminal GST fusion protein CHK1 expressed in baculovirus using CHKtide as substrate at 0.1 uM after 1 hr by off-chip Mobility Shift Assay.

The next assay concerns Staphylococcus aureus. Description: Antimicrobial activity against Staphylococcus aureus 209 at 100 nM after 24 hrs by standard microdilution method. It is filed as functional, organism-based.
Assay [16] concerns the target Platelet-derived growth factor receptor beta (Homo sapiens) (UniProt P09619). Description: Inhibition of N-terminal GST fusion protein human PDGFR-beta cytoplasmic domain expressed in baculovirus using CSKtide as substrate at 0.1 uM after 1 hr by off-chip Mobility Shift Assay.
Another assay concerns Plasmodium falciparum. Description: Antimalarial activity against Plasmodium falciparum 3D7 infected in human erythrocytes assessed as LDH activity at 100 nM after 72 hrs by plate reader analysis. It is filed as functional, organism-based.
The target of another assay is Tubulin (Sus scrofa) (UniProt P02554+P02550). Description: Inhibition of porcine tubulin polymerization measured every min for 1 hr by fluorescence analysis. It is filed as protein assay.
Tubulin (Sus scrofa), sequence (P02550 whole entry, looked up): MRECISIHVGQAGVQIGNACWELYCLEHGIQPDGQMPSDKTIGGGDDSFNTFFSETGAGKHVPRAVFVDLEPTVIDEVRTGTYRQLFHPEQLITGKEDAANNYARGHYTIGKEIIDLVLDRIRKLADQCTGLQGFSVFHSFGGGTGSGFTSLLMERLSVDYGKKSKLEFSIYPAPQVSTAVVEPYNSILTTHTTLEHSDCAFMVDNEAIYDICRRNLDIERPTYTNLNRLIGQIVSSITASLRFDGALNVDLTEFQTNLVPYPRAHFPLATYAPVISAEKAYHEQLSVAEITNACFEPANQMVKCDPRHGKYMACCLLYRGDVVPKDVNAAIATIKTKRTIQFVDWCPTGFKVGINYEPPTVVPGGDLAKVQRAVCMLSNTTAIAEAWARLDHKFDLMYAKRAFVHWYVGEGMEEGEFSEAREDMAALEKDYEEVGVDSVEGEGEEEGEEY
Tubulin (Sus scrofa), sequence (P02554 whole entry, looked up): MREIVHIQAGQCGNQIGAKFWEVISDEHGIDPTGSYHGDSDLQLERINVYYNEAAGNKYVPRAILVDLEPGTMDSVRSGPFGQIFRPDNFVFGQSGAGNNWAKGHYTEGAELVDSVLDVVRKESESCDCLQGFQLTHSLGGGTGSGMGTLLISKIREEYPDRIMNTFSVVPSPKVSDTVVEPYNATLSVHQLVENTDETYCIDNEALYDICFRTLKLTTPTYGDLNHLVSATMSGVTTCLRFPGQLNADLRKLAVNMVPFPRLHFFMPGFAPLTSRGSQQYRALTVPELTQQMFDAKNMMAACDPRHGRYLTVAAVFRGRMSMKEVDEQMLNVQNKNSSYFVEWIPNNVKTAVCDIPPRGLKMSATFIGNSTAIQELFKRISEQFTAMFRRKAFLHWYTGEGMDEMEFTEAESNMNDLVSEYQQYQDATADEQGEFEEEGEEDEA
For another assay, the system named is Aspergillus fumigatus. The experiment in a line: Antimicrobial activity against Aspergillus fumigatus Af293 at 100 nM after 48 hrs by standard microdilution method. The format is functional.
The target in assay [17] is T1, Tubulin (Homo sapiens). The experiment in a line: Inhibition of acetylated tubulin accumulation in human HeLa cells at 1 to 100 nM after 6 hrs by Western blot analysis. It is filed as cell-based.
Assay [18] deals with T1, Tubulin (Homo sapiens). Description: Inhibition of tubulin polymerization in human HeLa cells assessed as reduction of microtubule formation at 30 nM after 6 hrs by DAPI staining-based immunofluorescence assay. The format is cell-based.
The target of assay [19] is CDK4/Cyclin D3 (Homo sapiens) (UniProt P11802+P30281). The experiment in a line: Inhibition of human full length N-terminal GST-fusion protein CDK4/GST-tagged Cyclin D3 expressed in baculovirus using DYRKtide-F as substrate at 0.1 uM after 1 hr by off-chip Mobility Shift Assay.
A further assay relates to Escherichia coli. Description: Antimicrobial activity against Escherichia coli HO141 at 100 nM after 24 hrs by standard microdilution method. The format is functional, organism-based.
In assay [20] the target is T1, Tubulin (Homo sapiens). Description: Inhibition of tubulin polymerization in human HeLa cells assessed as reduction of microtubule formation at 100 nM after 6 hrs by DAPI staining-based immunofluorescence assay. It is filed as cell-based.

Active and inactive are the calls of the source. The calls are words filed in the database; no cut-off is given here. Bounds are passed on as bounds.

One may read the IC50 as the concentration at which inhibition is half-maximal. As a reminder, the inhibition is the relative decrease from the control value, in per cent.

As for `COc1ccc2c(c1)Cc1c(Nc3ccc(OC)c(OC)c3)n[nH]c1-2`, the IC50 in the assay with HeLa [1] is above 0.1 µM; in the assay with HCT-116 it was 0.0863 µM; in the assay with PC-3, 0.0909 µM; in the assay with HEK293, above 0.1 µM.

As for `COc1ccc2c(c1)Cc1c(Nc3ccccc3OC)n[nH]c1-2`, the concentration for half-maximal inhibition (IC50) in the assay with HeLa [1] is 0.032 µM; with HCT-116 it was 0.0862 µM; in the assay on PC-3, above 0.1 µM; in the assay with HEK293, above 0.1 µM.

With `COc1cc2c(c(OC)c1OC)-c1ccc(OC)c(=O)cc1[C@@H](NC(C)=O)CC2`, the outcome in the assay on HeLa [2] was Active.

`COc1cccc(Nc2n[nH]c3c2Cc2ccccc2-3)c1`: the 50% inhibitory concentration (IC50) in the assay on HeLa [1], in the assay on HCT-116, with PC-3 and in the assay on HEK293 was above 0.1 µM in each case. Besides, at Tubulin (Homo sapiens) [3], the inhibition entry was “inactive”.

Regarding `COc1ccc2c(c1)Cc1c-2n[nH]c1Nc1ccccc1`, the half-maximal inhibitory concentration (IC50) in the assay with HeLa [1] worked out at 0.0089 µM; with HCT-116, 0.0266 µM; in the assay with PC-3, 0.0356 µM; in the assay with HEK293, 0.0536 µM. Further, the inhibition entry at Tubulin (Homo sapiens) [3] and on Tubulin (Homo sapiens) [4] was “inactive” throughout.

With `COc1ccc2c(c1)Cc1c(Nc3cccc(C(=O)O)c3)n[nH]c1-2`, the IC50 with HeLa [1], in the assay with HCT-116, with PC-3 and in the assay on HEK293 was above 0.1 µM in each case.

In the case of `CCOc1ccc2c(c1)Cc1c(Nc3ccccc3)n[nH]c1-2`, the IC50 was determined as 0.0204 µM in the assay with HeLa [1], 0.0568 µM in the assay with HCT-116, 0.0602 µM with PC-3 and 0.0556 µM in the assay with HEK293.

On to `COc1ccc2c(c1)Cc1c(Nc3cccc(O)c3)n[nH]c1-2`, for which the half-maximal inhibitory concentration (IC50) in the assay on HeLa [1] was 0.0071 µM; in the assay on HCT-116 it was 0.0109 µM; in the assay with PC-3 it was 0.0086 µM; in the assay with HEK293 it was above 0.1 µM.

Regarding `COc1ccc2c(c1)Cc1c(Nc3ccccc3O)n[nH]c1-2`, the IC50 in the assay with HeLa [1], with HCT-116, in the assay with PC-3 and in the assay with HEK293 was above 0.1 µM each time.

Take `COc1cccc(Nc2n[nH]c3c2Cc2cc(OC)ccc2-3)c1`: the IC50 with HeLa [1] was 0.0028 µM; with HCT-116, 0.00653 µM; with PC-3, 0.0047 µM; in the assay on HEK293 it was 0.0088 µM.

Consider `c1ccc(Nc2n[nH]c3c2Cc2ccccc2-3)cc1`, for which the outcome with HeLa [5] and in the assay with HeLa [6] was inactive. The IC50 in the assay with HeLa [1], in the assay on HCT-116, in the assay on PC-3 and in the assay on HEK293 was above 0.1 µM in each case.

With `COc1ccc2c(c1)Cc1c(Nc3cccc(OCC(C)C)c3)n[nH]c1-2`, the inhibition entry on Tubulin (Homo sapiens) [7] and on Tubulin (Homo sapiens) [8] was “Active” each time. Also, the 50% inhibitory concentration (IC50) is 0.0199 µM with HeLa [1], 0.0566 µM with HCT-116, 0.0505 µM with PC-3 and 0.0255 µM with HEK293.

Consider `COC(=O)c1cccc(Nc2n[nH]c3c2Cc2cc(OC)ccc2-3)c1`, for which the inhibition was above 82% in [9], above 82% in assay [10], above 82% in assay [14] and “Dose-dependent effect” at Tubulin (Sus scrofa). Further, the result with Pyricularia oryzae, with Candida albicans, in the assay on Staphylococcus aureus, in the assay on Plasmodium falciparum, with Aspergillus fumigatus and in the assay on Escherichia coli was inactive. Besides, the inhibition result in assay [11], in [12], in assay [13], in assay [15], in assay [16] and in assay [19] was “inactive” in each case. The outcome in the assay with HeLa [5] was Active. Besides, the IC50 was found to be 0.00247 µM with HeLa [1], 0.0027 µM in the assay with HCT-116, 0.00264 µM with PC-3 and 0.0022 µM with HEK293. The inhibition result at Tubulin (Homo sapiens) [17] and at Tubulin (Homo sapiens) [18] was “Active” in each case.

For the molecule `CC(=O)O[C@H]1C(=O)[C@@]2(C)[C@H]([C@H](OC(=O)c3ccccc3)[C@]3(O)C[C@H](OC(=O)[C@H](O)[C@@H](NC(=O)c4ccccc4)c4ccccc4)C(C)=C1C3(C)C)[C@]1(OC(C)=O)CO[C@@H]1C[C@@H]2O`, the inhibition result on Tubulin (Homo sapiens) [20] was “inactive”.

Turning to `COc1cc(Nc2n[nH]c3c2Cc2cc(OC)ccc2-3)cc(OC)c1`, the IC50 was found to be 0.0032 µM in the assay with HeLa [1], 0.0074 µM in the assay with HCT-116, 0.007 µM in the assay with PC-3 and 0.0046 µM in the assay with HEK293.

For `COc1ccc(Nc2n[nH]c3c2Cc2cc(OC)ccc2-3)cc1`, the IC50 in the assay with HeLa [1], in the assay with HCT-116, in the assay with PC-3 and in the assay on HEK293 was above 0.1 µM in each case.

For `Oc1ccc2c(c1)Cc1c(Nc3ccccc3)n[nH]c1-2`, the concentration for half-maximal inhibition (IC50) with HeLa [1], with HCT-116, with PC-3 and in the assay on HEK293 was above 0.1 µM in each case.

(Values after ChEMBL document CHEMBL3576861, “Methyl 3-((6-methoxy-1,4-dihydroindeno[1,2-c]pyrazol-3-yl)amino)benzoate (GN39482) as a tubulin polymerization inhibitor identified by MorphoBase and ChemProteoBase profiling methods” (J Med Chem, 2015).)
